Results on 41 compounds are retold here after patent US12441679B2, “Acrylamide-substituted indane compounds and therapeutic use thereof” (Sanofi, priority 2020, dated 2025).

One may read the IC50 as the midpoint of a concentration-inhibition curve. Read a low IC50 as higher potency.

This experiment has as its system YAP1-TEAD and TAZ-TEAD activity (TEAD responsive promoter element). Kind of experiment: TEAD-Luciferase Reporter Assay (8XGTIIC-Luciferase construct stably integrated in tumor cell lines). To be noted: 8XGTIIC-Luciferase reporter in tumor cell lines, 48 hrs compound treatment, 10 doses 1-10000 nM. The class given is cell-based, human. From the text: TEAD-Luciferase Reporter Assay
Luciferase-based gene reporter assays were used, employing the TEAD responsive promoter element that are stably integrated to different human tumor cell lines in order to monitor YAP1-TEAD and TAZ-TEAD activity and to study YAP1/TAZ-TEAD activity modulation by small molecule compounds. Luciferase-based gene reporter assays employing the GAPDH promoter element and stably integrated to different human tumor cell lines are used as counter screen control cell lines.
Tumor cell lines with stable integration of the 8XGTIIC-Luciferase construct (Dupont et al., Nature 2011) or the GAPDH-Luciferase control plasmid, are seeded in culture medium in 96-well plates at a density of 8000 cells/well. Following an overnight incubation in a 37° C., 5% CO2 growth chamber, cells are treated with compounds described above at 10 doses ranging between 1 and 10000 nM for 48 hrs. After compound incubation, cells are lysed with Bright-Glo Luciferase Assay System (Promega E2620) and luciferase activity is measured using a luminescent plate reader.
The inhibitory activity of the compounds with respect to luciferase activity is given by the concentration which inhibits 50% of activity of non-treated cells. IC50s are determined with a nonlinear regression model on XLfit software analysis (IDBS, UK).

Under “Homo sapiens”, `C=CC(=O)Nc1ccc2c(c1)C(Oc1ccc(C(F)(F)F)cc1)C(F)C2` (centres unmarked) [Example 92, N-[2-fluoro-3-[4-(trifluoromethyl)phenoxy]-2,3-dihydro-1H-inden-5-yl]acrylamide] registered an IC50 of 95 nM.

Turning to `C=CC(=O)Nc1ccc2c(c1)CCC2Nc1ccc(F)nc1` (centres unmarked) [Example 19, N-(1-((6-fluoropyridin-3-yl)amino)-2,3-dihydro-1H-inden-5-yl)acrylamide], half-maximal inhibition (Homo sapiens) (IC50) was put at 503 nM.

`C=CC(=O)Nc1ccc2c(c1)C(OC1CCC(F)(F)CC1)CC2` (centres unmarked) [Example 35, N-(3-((4,4-difluorocyclohexyl)oxy)-2,3-dihydro-1H-inden-5-yl)acrylamide] had an IC50 (Homo sapiens) of 583 nM.

For the setting “Homo sapiens”, `C=CC(=O)Nc1ccc2c(c1)C(Oc1cccc(SC)c1)CC2` (centres unmarked) [Example 80, N-(3-(3-(methylthio)phenoxy)-2,3-dihydro-1H-inden-5-yl)acrylamide] came in with an IC50 of 300 nM.

In turn, `C=CC(=O)Nc1ccc2c(c1)CC(NCCCC(F)(F)F)C2` (centres unmarked) [Example 29, N-(2-((4,4,4-trifluorobutyl)amino)-2,3-dihydro-1H-inden-5-yl)acrylamide] yielded an IC50 (Homo sapiens) of over 10000 nM.

Compound `C=CC(=O)Nc1ccc2c(c1)C[C@@H](O)[C@@H]2Nc1cccc(C(F)(F)F)c1` (relative stereo) [Example 95, N-[(trans)-2-hydroxy-1-[3-(trifluoromethyl)anilino]-2,3-dihydro-1H-inden-5-yl]acrylamide] returned an IC50 (Homo sapiens) of 653 nM.

In the case of `C=CC(=O)Nc1ccc2c(c1)C(Oc1cccc(C3CC3)c1)CC2` (centres unmarked) [Example 81, N-(3-(3-cyclopropylphenoxy)-2,3-dihydro-1H-inden-5-yl)acrylamide], the IC50 (Homo sapiens) is 117 nM.

For the compound `C=CC(=O)N(C)c1ccc2c(c1)CC(C)C2Nc1cccc(C(F)(F)F)c1` (centres unmarked) [Example 93, N-methyl-N-(2-methyl-1-((3-(trifluoromethyl)phenyl)amino)-2,3-dihydro-1H-inden-5-yl)acrylamide], the IC50 (Homo sapiens) is 513 nM.

For the compound `C=CC(=O)Nc1ccc2c(c1)[C@@H](OC)C[C@H]2Nc1cccc(C(F)(F)F)c1` (relative stereo) [Example 94, N-[(cis)-3-methoxy-1-[3-(trifluoromethyl)anilino]-2,3-dihydro-1H-inden-5-yl]acrylamide], for the setting “Homo sapiens”, the IC50 amounted to 395 nM.

In the case of `C=CC(=O)Nc1ccc2c(c1)C(Nc1cccc(C(F)(F)F)c1)C(F)C2` (centres unmarked) [Example 91, N-(2-fluoro-3-((3-(trifluoromethyl)phenyl)amino)-2,3-dihydro-1H-inden-5-yl)acrylamide], the IC50 (Homo sapiens) was 209 nM.

For the setting “Homo sapiens”, `C=CC(=O)Nc1ccc2c(c1)C(Oc1cccc(Cl)c1)CC2` (centres unmarked) [Example 78, N-(3-(3-chlorophenoxy)-2,3-dihydro-1H-inden-5-yl)acrylamide] yielded an IC50 of 52 nM.

In turn, `C=CC(=O)Nc1ccc2c(c1)C[C@@H](Nc1cccc(C(F)(F)F)c1)C2` (single isomer, unassigned) [Example 51] came in with an IC50 (Homo sapiens) of 4330 nM.

Take `C=CC(=O)Nc1ccc2c(c1)C(OCC(F)(F)F)CC2` (centres unmarked) [Example 74, N-(3-(2,2,2-trifluoroethoxy)-2,3-dihydro-1H-inden-5-yl)acrylamide]: half-maximal inhibition (Homo sapiens) (IC50) required 3690 nM.

The compound `C=CC(=O)Nc1ccc2c(c1)C(Nc1cccc(C(F)(F)F)c1)CC2` (centres unmarked) [Example 11, N-(3-((3-(trifluoromethyl)phenyl)amino)-2,3-dihydro-1H-inden-5-yl)acrylamide] had an IC50 (Homo sapiens) of 37 nM.

Turning to `C=CC(=O)Nc1ccc2c(c1)C(OCCC(F)(F)F)CC2` (centres unmarked) [Example 75, N-(3-(3,3,3-trifluoropropoxy)-2,3-dihydro-1H-inden-5-yl)acrylamide], the IC50 (Homo sapiens) turned out to be 4720 nM.

Regarding `C=CC(=O)Nc1ccc2c(c1)C(Oc1cccc(C(=O)OC)c1)CC2` (centres unmarked) [Example 47, methyl 3-[6-(prop-2-enoylamino)-2,3-dihydro-1H-inden-1-yl]oxybenzoate], the IC50 (Homo sapiens) came to 4350 nM.

Regarding `C=CC(=O)Nc1ccc2c(c1)C(O[C@H]1CC[C@H](C(F)(F)F)CC1)CC2` (relative stereo) [Example 36, N-(3-(((trans)-4-(trifluoromethyl)cyclohexyl)oxy)-2,3-dihydro-1H-inden-5-yl)acrylamide], the IC50 (Homo sapiens) was 99 nM.

Take `C=CC(=O)Nc1ccc2c(c1)CCC2Nc1ccc(F)c(F)c1` (centres unmarked) [Example 16, N-(1-((3,4-difluorophenyl)amino)-2,3-dihydro-1H-inden-5-yl)acrylamide]: under “Homo sapiens”, the IC50 is 38 nM.

As to `C=CC(=O)Nc1ccc2c(c1)CC[C@H]2Nc1cc(C(F)(F)F)ccn1` (single isomer, unassigned) [Example 58], the IC50 (Homo sapiens) was determined as 216 nM.

In turn, `C=CC(=O)Nc1ccc2c(c1)CC[C@@H]2Nc1cc(C(F)(F)F)ccn1` (single isomer, unassigned) [Example 57] returned an IC50 (Homo sapiens) of 134 nM.

In the case of `C=CC(=O)Nc1ccc2c(c1)CCC2Nc1cccc(C(=O)OC)c1` (centres unmarked) [Example 22, methyl-3-((5-acrylamido-2,3-dihydro-1H-inden-1-yl)amino)benzoate], the IC50 (Homo sapiens) is over 10000 nM.

The compound `C=CC(=O)Nc1ccc2c(c1)CC(NCCCF)C2` (centres unmarked) [Example 30, N-(2-((3-fluoropropyl)amino)-2,3-dihydro-1H-inden-5-yl)acrylamide] returned an IC50 (Homo sapiens) of over 10000 nM.

In the case of `C=CC(=O)Nc1ccc2c(c1)C(Oc1cccc(F)c1)CC2` (centres unmarked) [Example 41, N-(3-(3-fluorophenoxy)-2,3-dihydro-1H-inden-5-yl)acrylamide], for the setting “Homo sapiens”, the IC50 came out at 87 nM.

In the case of `C=CC(=O)Nc1ccc2c(c1)C(Oc1ccc(C(F)(F)F)cn1)CC2` (centres unmarked) [Example 88, N-[3-[[5-(trifluoromethyl)pyridin-2-yl]oxy]-2,3-dihydro-1H-inden-5-yl]acrylamide], 51 nM corresponded to half-maximal inhibition (Homo sapiens) (IC50).

Turning to `C=CC(=O)Nc1ccc2c(c1)C(NCc1ccccc1)CC2` (centres unmarked) [Example 23, N-(3-(benzylamino)-2,3-dihydro-1H-inden-5-yl)acrylamide], the IC50 (Homo sapiens) is 9530 nM.

`C=CC(=O)Nc1ccc2c(c1)CC(Nc1cccc(C(F)(F)F)c1)C2` (centres unmarked) [Example 32, N-(2-((3-(trifluoromethyl)phenyl)amino)-2,3-dihydro-1H-inden-5-yl)acrylamide]: the IC50 (Homo sapiens) worked out at 64 nM.

In the case of “(R)—N-(1-((3-(trifluoromethyl)phenyl)amino)-2,3-dihydro-1H-inden-5-yl)acrylamide [Example 2]”, the IC50 is 38 nM.

Consider `C=CC(=O)Nc1ccc2c(c1)CCC2N(C)c1ccc(C(F)(F)F)cc1` (centres unmarked) [Example 64, N-(1-(methyl(4-(trifluoromethyl)phenyl)amino)-2,3-dihydro-1H-inden-5-yl)acrylamide], for which, where the note is “Homo sapiens”, it took 806 nM to reach half-maximal inhibition (IC50).

Where the note is “Homo sapiens”, `C=CC(=O)Nc1ccc2c(c1)CCC2NCc1ccc(C(F)(F)F)cc1` (centres unmarked) [Example 25, N-(1-((4-(trifluoromethyl)benzyl)amino)-2,3-dihydro-1H-inden-5-yl)acrylamide] yielded an IC50 of 8240 nM.

For the setting “Homo sapiens”, `C=CC(=O)Nc1ccc2c(c1)C[C@H](Nc1cccc(C(F)(F)F)c1)C2` (single isomer, unassigned) [Example 50] returned an IC50 of 76 nM.

`C=CC(=O)Nc1ccc2c(c1)[C@@H](Oc1ccc(C(F)(F)F)cc1)CC2` (single isomer, unassigned) [Example 86] displayed an IC50 (Homo sapiens) of 134 nM.

The compound `C=CC(=O)Nc1ccc2c(c1)C(Oc1cc(F)cc(F)c1)CC2` (centres unmarked) [Example 43, N-(3-(3,5-difluorophenoxy)-2,3-dihydro-1H-inden-5-yl)acrylamide] yielded a concentration for half-maximal inhibition (IC50) (Homo sapiens) of 140 nM.

For `C=CC(=O)Nc1ccc2c(c1)CCC2NCc1cccc(C(F)(F)F)c1` (centres unmarked) [Example 24, N-(1-((3-(trifluoromethyl)benzyl)amino)-2,3-dihydro-1H-inden-5-yl)acrylamide], the IC50 (Homo sapiens) came out at 8040 nM.

Compound `C=CC(=O)Nc1ccc2c(c1)C(Oc1cccc(C(F)(F)F)c1)CC2` (centres unmarked) [Example 39, N-(3-(3-(trifluoromethyl)phenoxy)-2,3-dihydro-1H-inden-5-yl)acrylamide] yielded an IC50 (Homo sapiens) of 53 nM.

With `C=CC(=O)Nc1ccc2c(c1)CC[C@H]2Nc1ccc(C(F)(F)F)cc1` (single isomer, unassigned) [Example 55], for the setting “Homo sapiens”, it took 38 nM to reach half-maximal inhibition (IC50).

On to `C=CC(=O)Nc1ccc2c(c1)CCC2Oc1cccc(C(F)(F)F)c1` (centres unmarked) [Example 45, N-(1-(3-(trifluoromethyl)phenoxy)-2,3-dihydro-1H-inden-5-yl)acrylamide], for which, for the setting “Homo sapiens”, half-maximal inhibition (IC50) was put at 12 nM.

For the setting “Homo sapiens”, `C=CC(=O)Nc1cc(F)c2c(c1)CCC2Nc1cccc(C(F)(F)F)c1` (centres unmarked) [Example 67, N-[7-fluoro-1-[3-(trifluoromethyl)anilino]-2,3-dihydro-1H-inden-5-yl]acrylamide] returned an IC50 of 53 nM.

On to `C=CC(=O)Nc1ccc2c(c1)CC(N[C@H]1CC[C@@H](C(F)(F)F)CC1)C2` (relative stereo) [Example 26, N-(2-(((cis)-4-(trifluoromethyl)cyclohexyl)amino)-2,3-dihydro-1H-inden-5-yl)acrylamide], for which, under “Homo sapiens”, the IC50 is over 10000 nM.

`C=CC(=O)Nc1ccc2c(c1)C(OCCCC(F)(F)F)CC2` (centres unmarked) [Example 33, N-(3-(4,4,4-trifluorobutoxy)-2,3-dihydro-1H-inden-5-yl)acrylamide]: the IC50 (Homo sapiens) amounted to 170 nM.

Turning to `C=CC(=O)Nc1ccc2c(c1)CCC2Nc1ccc(F)cc1` (centres unmarked) [Example 5, N-(1-((4-fluorophenyl)amino)-2,3-dihydro-1H-inden-5-yl)acrylamide], where the note is “Homo sapiens”, inhibition was half-maximal at 29 nM (IC50).

In the case of `C=CC(=O)N(C)c1ccc2c(c1)CCC2OC1CCC(C(F)(F)F)CC1` (centres unmarked) [Example 76, N-methyl-N-(1-((4-(trifluoromethyl)cyclohexyl)oxy)-2,3-dihydro-1H-inden-5-yl)acrylamide], inhibition (Homo sapiens) was half-maximal at 777 nM (IC50).
